# Results taken from patent US12655090B2, “Cyclopropylamide compounds against parasites in fish” (Intervet Inc., priority 2021, dated 2026).
# Columns and labels:
# [1] = tested on: Copepodids (juvenile sea lice stage of Lepeophtheirus salmonis); assay: Juvenile sea lice contact assay; conditions: approximately 24 hours continuous exposure in seawater, read-out: Sea lice inhibition (% of dead+damaged copepodids); for inhibition at 0.01 µM: test concentration 10 nM; for inhibition at 10 pM: test concentration 0.01 nM; for inhibition at 0.001 µM: test concentration 1 nM; for inhibition at 0.1 µM: test concentration 100 nM
# Experimental: Copepodids (juvenile sea lice stage of Lepeophtheirus salmonis) were exposed to seawater spiked with declining concentrations of a test compound (dissolved in a DMSO sea-water mixture). Sea lice inhibition (% of dead+damaged copepodids) was assessed after approximately 24 hours of continuous exposure. The vitality of used parasites was confirmed in a negative (solvent) control group.
# [2] = tested on: Mobile stages of sea lice (pre-adults, adults of Lepeophtheirus salmonis); assay: Adult sea lice contact assay; conditions: assessed after approximately 1 and 24 hours of continuous exposure, read-out: EC50 (sea lice inhibition, dead+damaged sea lice)
# Experimental: Mobile stages of sea lice (i.e., pre-adults, adults of Lepeophtheirus salmonis) were exposed to seawater spiked with declining concentrations of a test compound (dissolved in a PEG sea-water mixture). Sea lice inhibition (% of dead+damaged sea lice) was assessed after approximately 1 and 24 hours of continuous exposure in comparison to a negative (solvent) control group.
structure (smiles),measurement,setting,value
Cc1cc(NC(=O)C2C(c3ccc(F)c(Cl)c3)C2(Cl)Cl)cc(C(=O)NCCCCl)c1Cl (racemic) [Compound 1557],inhibition at 0.01 µM,[1],100%
O=C(NCCF)c1cc(NC(=O)C2C(c3ccc(F)c(Cl)c3)C2(Cl)Cl)ccc1F (racemic) [Compound 1558],inhibition at 10 pM,[1],100%
O=C(NCC(F)(F)F)c1cc(NC(=O)C2C(c3ccc(F)c(Cl)c3)C2(Cl)Cl)ccc1F (racemic) [Compound 1559],inhibition at 10 pM,[1],100%
Cc1c(Cl)cc(NC(=O)C2C(c3ccc(F)c(Cl)c3)C2(Cl)Cl)cc1C(=O)NCC(F)(F)F (racemic) [Compound 1561],inhibition at 0.01 µM,[1],100%
O=C(NCCCCl)c1cc(NC(=O)C2C(c3ccc(F)c(Cl)c3)C2(Cl)Cl)ccc1F (racemic) [Compound 1563],inhibition at 10 pM,[1],100%
O=C(NCC(F)(F)F)c1cc(NC(=O)C2C(c3ccc(F)c(Cl)c3)C2(Cl)Cl)cc(F)c1Cl (racemic) [Compound 1565],inhibition at 10 pM,[1],100%
Cc1c(Cl)cc(NC(=O)C2C(c3ccc(F)c(Cl)c3)C2(Cl)Cl)cc1C(=O)NCCCCl (racemic) [Compound 1566],inhibition at 0.01 µM,[1],100%
Cc1c(F)cc(NC(=O)C2C(c3ccc(F)c(Cl)c3)C2(Cl)Cl)cc1C(=O)NCC(F)(F)F (racemic) [Compound 1567],inhibition at 0.001 µM,[1],100%
O=C(NCC(F)(F)F)c1cc(NC(=O)C2C(c3ccc(F)c(Cl)c3)C2(Cl)Cl)cc(Cl)c1F (racemic) [Compound 1570],inhibition at 0.01 µM,[1],≥ 80%
O=C(NCCC(F)(F)F)c1c(F)ccc(NC(=O)C2C(c3ccc(F)c(Cl)c3)C2(Cl)Cl)c1F (racemic) [Compound 1573],inhibition at 0.01 µM,[1],100%
O=C(NCCCCl)c1cc(NC(=O)C2C(c3ccc(F)c(Cl)c3)C2(Cl)Cl)cc(F)c1F (racemic) [Compound 1574],inhibition at 0.001 µM,[1],80%
CC(NC(=O)c1cc(NC(=O)C2C(c3cc(F)c(F)c(F)c3)C2(Cl)Cl)ccc1Cl)C(F)(F)F (racemic) [Compound 1602],inhibition at 0.01 µM,[1],100%
same,EC50,[2],10 to 25 nM
O=C(NC1CC(F)(F)C1)c1cc(NC(=O)C2C(c3cc(Cl)cc(Cl)c3)C2(Cl)Cl)ccc1Cl (stereo not shown) [Compound 1531],inhibition at 0.01 µM,[1],100%
N#CC1(NC(=O)c2cc(NC(=O)C3C(c4ccc(F)c(Cl)c4)C3(Cl)Cl)cc(F)c2F)CC1 (stereo not shown) [Compound 1589],inhibition at 0.001 µM,[1],80%
same,EC50,[2],≤ 1 nM
O=C(NCC(F)(F)F)c1cc(NC(=O)C2C(c3ccc(F)c(F)c3)C2(Cl)Cl)ccc1Cl (stereo not shown) [Compound 1591],inhibition at 0.1 µM,[1],100%
CC(C)(NC(=O)c1cc(NC(=O)C2C(c3cc(F)c(F)c(F)c3)C2(Cl)Cl)ccc1Cl)C(F)(F)F (stereo not shown) [Compound 1603],inhibition at 0.01 µM,[1],≥ 80%
same,EC50,[2],10 to 25 nM
O=C(NC1(C(F)(F)F)CC1)c1cc(NC(=O)C2C(c3cc(F)c(F)c(F)c3)C2(Cl)Cl)ccc1Cl (stereo not shown) [Compound 1604],inhibition at 0.01 µM,[1],100%
same,EC50,[2],10 to 25 nM
O=C(NC1CC(F)(F)C1)c1cc(NC(=O)C2C(c3cccc(C(F)(F)F)c3)C2(Cl)Cl)ccc1Cl (stereo not shown) [Compound 1611],inhibition at 0.1 µM,[1],100%
N#CC1(NC(=O)c2cc(NC(=O)C3C(c4cc(C(F)(F)F)cc(C(F)(F)F)c4)C3(Cl)Cl)ccc2Cl)CC1 (stereo not shown) [Compound 1612],inhibition at 0.01 µM,[1],100%
same,EC50,[2],10 to 25 nM
O=C(NCC(F)(F)F)c1cc(NC(=O)C2C(c3cc(C(F)(F)F)cc(C(F)(F)F)c3)C2(Cl)Cl)ccc1Cl (stereo not shown) [Compound 1613],inhibition at 0.01 µM,[1],100%
same,EC50,[2],≤ 1 nM
C#CCNC(=O)c1cc(NC(=O)C2C(c3cc(C(F)(F)F)cc(C(F)(F)F)c3)C2(Cl)Cl)ccc1Cl (stereo not shown) [Compound 1614],inhibition at 0.001 µM,[1],80%
same,EC50,[2],≤ 1 nM
N#CC1(NC(=O)c2cc(NC(=O)C3C(c4cc(C(F)(F)F)cc(C(F)(F)F)c4)C3(Cl)Cl)cc(F)c2F)CC1 (stereo not shown) [Compound 1615],inhibition at 0.01 µM,[1],100%
same,EC50,[2],1 to 10 nM
CC1(NC(=O)c2cc(NC(=O)C3C(c4cc(Cl)cc(Cl)c4)C3(Cl)Cl)cc(F)c2F)CC1 (stereo not shown) [Compound 1616],inhibition at 0.1 µM,[1],100%
O=C(NC1(C(F)(F)F)CC1)c1cc(NC(=O)C2C(c3cc(Cl)cc(Cl)c3)C2(Cl)Cl)ccc1F (stereo not shown) [Compound 1627],inhibition at 0.1 µM,[1],≥ 80%
C#CCNC(=O)c1cc(NC(=O)C2C(c3cc(Cl)cc(Cl)c3)C2(Cl)Cl)cc(F)c1F (stereo not shown) [Compound 1629],inhibition at 0.1 µM,[1],100%
C#CCNC(=O)c1cc(NC(=O)C2C(c3cc(Cl)cc(Cl)c3)C2(Cl)Cl)ccc1F (stereo not shown) [Compound 1631],inhibition at 0.1 µM,[1],100%
